Entries after “also recorded” stand apart in the source; their conditions may differ.
Legend:
[1] = system: COS7 cells; assay: CCK-8 cell viability assay; type: cell-based; settings: 27 h, 37 °C
Experimental: We next examined the suitability of 1 for live-cell experiments. First, we performed CCK-8 assay (Dojindo) to examine its cytotoxicity. COS7 cells were incubated with various concentrations of 1 for 27 h at 37 °C under 5% CO2 and the cell viability was assessed. […] We then examined whether 1 can inhibit the enzymatic activity of hCSE in living cells by employing an indirect approach (Supplementary Fig. S12). HEK293T cells expressing hCSE were incubated with 0–1 mM 1 for 30 min, then washed twice with phosphate-buffered saline (PBS), and lysed in RIPA buffer (50 mM Tris–HCl buffer (pH 7.6), 150 mM NaCl, 1% Nonidet P40 Substitute, 0.5% sodium deoxycholate, protease inhibitor cocktail, 0.1% SDS). The inhibitory activity of 1 was evaluated by fluorescence detection after adding 1.5 mM cysteine, 100 μM PLP and 1 μM HSip-1 to these cell lysates.
We performed CCK-8 (Cell Counting Kit-8) assay (Dojindo) to examine cell viability. […] This absorbance is proportional to the number of living cells. […] The absorbance at 450 nm was measured with a microplate reader (EnVision, Perkin Elmer).
Supplementary Figure S11. […] COS7 cells were incubated in DMEM (Dulbecco’s modified Eagle’s medium) containing 1 (1, 3, 10, 30 and 100 µM) for […] and the cell viability was measured using CCK-8 reagent. […]

[2] = biological target: T1, rCBS (Rattus norvegicus, UniProt P32232); assay: rCBS inhibition, HSip-1 fluorescence; type: biochemical; settings: 30 µM
T1 construct: GST (N); HA (C); made in house; host or cells: E. coli BL21
T1 sequence (P32232 1-561): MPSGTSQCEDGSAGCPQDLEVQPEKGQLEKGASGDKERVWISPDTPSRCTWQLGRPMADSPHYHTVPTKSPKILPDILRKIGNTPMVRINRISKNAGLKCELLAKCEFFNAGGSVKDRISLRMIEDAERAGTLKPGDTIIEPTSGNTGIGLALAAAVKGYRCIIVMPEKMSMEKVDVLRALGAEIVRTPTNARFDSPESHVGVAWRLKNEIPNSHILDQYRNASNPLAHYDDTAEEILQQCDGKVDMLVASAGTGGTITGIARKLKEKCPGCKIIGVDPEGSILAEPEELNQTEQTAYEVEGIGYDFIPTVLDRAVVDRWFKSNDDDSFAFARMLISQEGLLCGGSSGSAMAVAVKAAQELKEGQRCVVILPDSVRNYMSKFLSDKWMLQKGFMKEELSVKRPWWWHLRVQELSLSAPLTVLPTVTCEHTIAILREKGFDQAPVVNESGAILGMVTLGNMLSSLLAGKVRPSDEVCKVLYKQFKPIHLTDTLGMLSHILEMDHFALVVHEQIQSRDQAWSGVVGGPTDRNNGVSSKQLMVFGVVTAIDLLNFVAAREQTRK
Experimental: The selectivity of 1, 2 and PAG for rCSE over other RSS-producing enzymes, CBS and 3MST, was examined (Fig. 4a). CBS is a PLP-dependent enzyme, like CSE, and produces H2S from cysteine and homocysteine as substrates. 3MST is also an H2S-producing enzyme, but is not PLP-dependent and uses 3-mercaptopyruvate as a substrate. The amount of H2S produced by CBS or 3MST was evaluated in the presence or absence of the inhibitor by measuring the fluorescence intensity of HSip-1. […] We also examined the inhibitory activity towards two other PLP-dependent enzymes, MGL and ALT. MGL metabolizes L-methionine to α-ketobutyric acid, methanethiol and ammonia, and is inhibited by PAG[14]. MGL also produces H2S from homocysteine as a substrate, and this activity of MGL can be measured by fluorescence detection with HSip-1. […] The enzymatic activity of ALT can be assessed by means of a coupled assay using the reduction of pyruvate to L-lactate with lactate dehydrogenase and NADH and measuring the change in absorption of NADH.
10 µL of 2.5 mM cysteine and 2.5 mM homocysteine in 30 mM HEPES (pH 7.4) was added to 10 µL of a solution containing 20 µg/mL rCBS, 50 µM PLP, 100 µM SAM, 1 µM HSip-1, 0.005% tween 20, 0.5% DMSO and various concentrations of the inhibitors. The mixture was incubated at 37 °C for 2 h and the fluorescence intensity of HSip-1 was measured with a microplate reader.

[3] = biological target: rCSE (Rattus norvegicus, UniProt P18757); assay: SPR measurement of binding between rCSE and 1; set-up: made in house; host or cells: E. coli
rCSE, sequence (P18757 whole entry): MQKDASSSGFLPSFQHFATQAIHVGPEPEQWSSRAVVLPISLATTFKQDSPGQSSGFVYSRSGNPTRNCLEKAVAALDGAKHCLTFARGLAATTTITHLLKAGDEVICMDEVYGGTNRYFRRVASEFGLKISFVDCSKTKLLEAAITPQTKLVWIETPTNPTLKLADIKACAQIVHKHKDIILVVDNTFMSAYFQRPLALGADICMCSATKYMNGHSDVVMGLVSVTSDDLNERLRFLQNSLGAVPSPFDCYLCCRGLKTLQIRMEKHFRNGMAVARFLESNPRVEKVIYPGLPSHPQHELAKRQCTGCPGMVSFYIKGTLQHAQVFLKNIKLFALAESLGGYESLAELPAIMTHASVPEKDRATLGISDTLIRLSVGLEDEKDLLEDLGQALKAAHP
Experimental: Moreover, we performed surface plasmon resonance (SPR) assay to investigate the binding kinetics between rCSE and 1. rCSE was immobilized on a sensor chip of an SPR sensor, and various concentrations (6.25, 12.5, 25 and 50 µM) of 1 were flowed over it. The sensor chip was flushed with buffer solution not containing 1 before each concentration change of 1. […] In SPR binding studies between small molecule ligands and proteins, the washing process often markedly decreases the SPR signal.
The interaction between rCSE and oxamic hydrazide was analyzed using a Biacore T200 SPR instrument (Cytiva). A CM7 Biacore sensor chip (Cytiva) was used to immobilize rCSE at approximately 35,000 RU after activation with N-hydroxysuccinimide/N-ethyl-N′-(3-dimethylaminopropyl) carbodiimide hydrochloride. Acetate buffer (pH 5.5) was used to dilute rCSE. The activated surface of the sensor was blocked with 1 M ethanolamine. The interaction between rCSE and oxamic hydrazide was measured by injecting increasing concentrations of oxamic hydrazide into the sensor chip. The interaction was measured in 20 mM HEPES (pH 7.4) containing 150 mM NaCl, 0.5 mM TCEP, 100 µM PLP, 0.005% (v/v) Tween-20 and 1% (v/v) DMSO as a cosolvent.

selectivity for CSE over CBS [2]: high selectivity for CSE over CBS
binding to rCSE (SPR) ([3]; 6.25, 12.5, 25 and 50 µM): increased concentration-dependently
Structure (SMILES): NNC(=O)C(N)=O [Compound 1, oxamic hydrazide]
cytotoxicity (cell viability) [1]: No cytotoxicity was observed below 100 µM
dissociation from rCSE during washing (SPR) ([3]; washing with buffer not containing 1): little dissociation occurs; also recorded: no dissociation
